Legend:
[1] = target: T1, Non-structural protein 4b (Hepacivirus hominis, UniProt F5B4I0); experiment: Binding affinity to Hepatitis C virus genotype 1 NS4B assessed as inhibition constant
T1 sequence (F5B4I0 whole entry): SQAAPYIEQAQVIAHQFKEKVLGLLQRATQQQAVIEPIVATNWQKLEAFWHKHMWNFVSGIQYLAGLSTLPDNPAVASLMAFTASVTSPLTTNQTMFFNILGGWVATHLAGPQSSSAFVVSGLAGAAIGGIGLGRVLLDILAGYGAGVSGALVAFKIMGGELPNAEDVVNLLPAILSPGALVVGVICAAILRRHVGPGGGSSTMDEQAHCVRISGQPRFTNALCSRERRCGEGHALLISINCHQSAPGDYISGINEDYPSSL

Quadruplex DNA [2] = experiment: Binding affinity to TERRA G-Quadruplex (unknown origin) assessed as melting temperature; assay type: nucleic-acid assay
Quadruplex DNA [3] = experiment: Binding affinity to TERRA G-Quadruplex (unknown origin) assessed as dissociation constant; assay type: nucleic-acid assay
[4] = target: T2, Survival of motor neuron-related-splicing factor 30 (Homo sapiens) (UniProt O75940); experiment: Inhibition of SMNDC1 (unknown origin) assessed as fold increase at 40 uM
T2 sequence (whole entry): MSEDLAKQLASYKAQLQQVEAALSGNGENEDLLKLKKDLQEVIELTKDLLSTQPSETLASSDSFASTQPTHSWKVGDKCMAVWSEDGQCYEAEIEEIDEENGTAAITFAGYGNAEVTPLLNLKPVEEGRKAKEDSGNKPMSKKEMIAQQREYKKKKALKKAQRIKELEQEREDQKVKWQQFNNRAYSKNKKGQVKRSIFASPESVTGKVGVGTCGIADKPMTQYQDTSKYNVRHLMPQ

preQ1 riboswitch [5] = experiment: Binding affinity to Thermoanaerobacter tengcongensis 5-Cy5-PreQ1-RS RNA assessed as dissociation constant; assay type: nucleic-acid assay, Caldanaerobacter subterraneus subsp. tengcongensis
preQ1 riboswitch [6] = experiment: Binding affinity to Bacillus subtilis 5-Cy5-PreQ1-RS RNA assessed as dissociation constant; assay type: nucleic-acid assay
[7] = Binding affinity to SARS-Cov-2 RNA pseudoknot assessed as dissociation constant; design: species or system Severe acute respiratory syndrome coronavirus 2

CN(C)CCCNc1nc2ccc(N)cc2o1
Ki [1]: 6 µM

O=c1c2c(-c3ccco3)csc2nc2n1Cc1nc3scc(-c4ccco4)c3c(=O)n1C2
ΔTm (Quadruplex DNA [2]): > 5 °C
Kd (Quadruplex DNA [3]): 8.8 µM

O=C(c1cnc(C(=O)c2c[nH]c3cc(O)ccc23)[nH]1)c1c[nH]c2ccccc12
fold change (FC) [4]: 1.5

NCCOc1ccc2oc3ccccc3c2c1
Kd (preQ1 riboswitch [5]): 0.457 µM
Kd (preQ1 riboswitch [6]): 0.534 µM

CCOC(=O)c1ccccc1NC(=O)N1CCCN(Cc2csc(C)n2)CC1
Kd [7]: 210 µM
